Assay results reported in patent publication US6737383B1, “Herbicidal oxadiazolidines” (priority 1999, dated 2004).

Columns and labels:
bedstraw = assay: Test B pre/postemergence bedstraw; format: in vivo, Galium aparine
Summary of the method: (§1)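 Response is a visual 0-to-10 score relative to untreated plants, where 0 means no effect and 10 means complete control, taken twelve to sixteen days after application. Treatments went onto soil at planting and onto foliage of 1- to 4-leaf plants, using a surfactant-containing non-phytotoxic solvent.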

duck salad = assay: Test B flood test duck salad; format: in vivo, Heteranthera limosa
Summary of the method: (§2)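 Read-out is a visual response score from 0 (no effect) to 10 (complete control), assigned by comparison with untreated controls. Treatment was applied at the 2-leaf stage, and plants stayed in the greenhouse for twelve to sixteen days before scoring.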

corn = assay: Test B pre/postemergence corn; format: in vivo, Zea mays
Summary of the method: as §1

smallflower flatsedge = assay: Test B flood test smallflower flatsedge; format: in vivo, Cyperus difformis
Summary of the method: as §2

crabgrass = assay: Test B pre/postemergence crabgrass; format: in vivo, Digitaria sanguinalis
Summary of the method: as §1

wild oat = assay: Test B pre/postemergence wild oat; format: in vivo, Avena fatua
Summary of the method: as §1

giant foxtail = assay: Test B pre/postemergence giant foxtail; format: in vivo, Setaria faberii
Summary of the method: as §1

sugar beet = assay: Test B pre/postemergence sugar beet; format: in vivo, Beta vulgaris
Summary of the method: as §1

pigweed = assay: Test B pre/postemergence pigweed; format: in vivo, Amaranthus retroflexus
Summary of the method: as §1

soybean = assay: Test B pre/postemergence soybean; format: in vivo, Glycine max
Summary of the method: as §1

bamyardgrass = assay: Test B flood test barnyardgrass; format: in vivo, Echinochloa crus-galli
Summary of the method: as §2

velvetleaf = assay: Test B pre/postemergence velvetleaf; format: in vivo, Abutilon theophrasti
Summary of the method: as §1

rape = assay: Test B pre/postemergence rape; format: in vivo, Brassica napus
Summary of the method: as §1

blackgrass = assay: Test B pre/postemergence blackgrass; format: in vivo, Alopecurus myosuroides
Summary of the method: as §1

wheat = assay: Test B pre/postemergence wheat; format: in vivo, Triticum aestivum
Summary of the method: as §1

cocklebur = assay: Test B pre/postemergence cocklebur; format: in vivo, Xanthium strumarium
Summary of the method: as §1

surinam grass = assay: Test B pre/postemergence surinam grass; format: in vivo, Brachiaria decumbens
Summary of the method: as §1

morningglory = assay: Test B pre/postemergence morningglory; format: in vivo, Ipomoea hederacea
Summary of the method: as §1

purple nutsedge = assay: Test B pre/postemergence purple nutsedge; format: in vivo, Cyperus rotundus
Summary of the method: as §1

rice = assay: Test B flood test rice; format: in vivo, Oryza sativa
Summary of the method: as §2

[1] = Postemergence, Rate 62 g/ha, scale 0 to 10, 0 is no effect, 10 is complete control
[2] = Preemergence, Rate 62 g/ha, scale 0 to 10 (0 no effect, 10 complete control)
[3] = Preemergence, Rate 125 g/ha, scale of 0 to 10 where 0 is no effect and 10 is complete control
[4] = Preemergence, Rate 500 g/ha, scale of 0 to 10 where 0 is no effect and 10 is complete control
[5] = Rate 62 g/ha, flood test species, Pre-emergence, visual evaluation after twelve to sixteen days
[6] = Rate 125 g/ha, under heading Pre-emergence, flood test species, visual evaluation after twelve to sixteen days
[7] = Rate 250 g/ha, Pre-emergence (flood test species), scale 0 to 10, 0 is no effect, 10 is complete control
[8] = Rate 500 g/ha, Pre-emergence section of Table B, 0 to 10 scale (0 no effect, 10 complete control)
[9] = Postemergence, Rate 250 g/ha, scale of 0 to 10, 0 is no effect, 10 is complete control
[10] = Postemergence, Rate 500 g/ha, scale of 0 to 10 where 0 is no effect and 10 is complete control
[11] = Preemergence, Rate 250 g/ha, scale 0 to 10 (0 no effect, 10 complete control)

CC(=O)NCn1c(=O)on(C(=O)N(c2ccc(F)cc2F)C(C)C)c1=O [Compound 622]
Plant response rating, Bedstraw (bedstraw; [1]): 0
Bedstraw plant response rating (bedstraw; [2]): 0
Bedstraw plant response rating (bedstraw; [3]): 0
Plant response rating, Bedstraw (bedstraw; [4]): 2
Plant response rating, Ducksalad (0 to 10 scale, 0 is no effect, 10 is complete control) (duck salad; [5]): 0
Ducksalad plant response rating (0 to 10 scale, 0 is no effect, 10 is complete control) (duck salad; [6]): 0
Ducksalad plant response rating (duck salad; [7]): 0
Ducksalad plant response rating (duck salad; [8]): 0
Plant response rating, Corn (corn; [1]): 0
Corn plant response rating (corn; [9]): 0
Plant response rating, Corn (corn; [10]): 0
Corn plant response rating (corn; [2]): 0
Corn plant response rating (corn; [3]): 0
Plant response rating, Corn (corn; [11]): 0
Plant response rating, Corn (corn; [4]): 0
Plant response rating, S. Flatsedge (0 to 10 scale, 0 is no effect, 10 is complete control) (smallflower flatsedge; [5]): 0
S. Flatsedge plant response rating (0 to 10 scale, 0 is no effect, 10 is complete control) (smallflower flatsedge; [6]): 0
S. Flatsedge plant response rating (smallflower flatsedge; [7]): 0
S. Flatsedge plant response rating (smallflower flatsedge; [8]): 0
Plant response rating, Crabgrass (crabgrass; [1]): 2
Plant response rating, Crabgrass (crabgrass; [10]): 5
Crabgrass plant response rating (crabgrass; [2]): 6
Crabgrass plant response rating (crabgrass; [3]): 6
Plant response rating, Crabgrass (crabgrass; [11]): 7
Plant response rating, Crabgrass (crabgrass; [4]): 8
Plant response rating, Wild oats (wild oat; [1]): 0
Wild oats plant response rating (wild oat; [9]): 0
Wild oats plant response rating (wild oat; [2]): 0
Wild oats plant response rating (wild oat; [3]): 0
Plant response rating, Wild oats (wild oat; [11]): 0
Plant response rating, Wild oats (wild oat; [4]): 3
Plant response rating, Giant foxtail (giant foxtail; [1]): 0
Giant foxtail plant response rating (giant foxtail; [9]): 6
Plant response rating, Giant foxtail (giant foxtail; [10]): 7
Giant foxtail plant response rating (giant foxtail; [2]): 4
Plant response rating, Giant foxtail (giant foxtail; [11]): 9
Plant response rating, Giant foxtail (giant foxtail; [4]): 9
Plant response rating, Sugarbeets (sugar beet; [1]): 0
Sugarbeets plant response rating (sugar beet; [9]): 2
Sugarbeets plant response rating (sugar beet; [2]): 0
Sugarbeets plant response rating (sugar beet; [3]): 0
Plant response rating, Sugarbeets (sugar beet; [11]): 0
Plant response rating, Sugarbeets (sugar beet; [4]): 3
Plant response rating, Redroot pigweed (pigweed; [1]): 0
Redroot pigweed plant response rating (pigweed; [9]): 0
Redroot pigweed plant response rating (pigweed; [2]): 4
Redroot pigweed plant response rating (pigweed; [3]): 7
Plant response rating, Redroot pigweed (pigweed; [11]): 10
Plant response rating, Redroot pigweed (pigweed; [4]): 10
Plant response rating, Soybean (soybean; [1]): 4
Soybean plant response rating (soybean; [9]): 6
Soybean plant response rating (soybean; [2]): 0
Soybean plant response rating (soybean; [3]): 0
Plant response rating, Soybean (soybean; [11]): 0
Plant response rating, Soybean (soybean; [4]): 0
Plant response rating, Barnyardgrass (0 to 10 scale, 0 is no effect, 10 is complete control) (bamyardgrass; [5]): 0
Barnyardgrass plant response rating (0 to 10 scale, 0 is no effect, 10 is complete control) (bamyardgrass; [6]): 0
Barnyardgrass plant response rating (bamyardgrass; [7]): 0
Barnyardgrass plant response rating (bamyardgrass; [8]): 0
Plant response rating, Velvetleaf (velvetleaf; [1]): 0
Velvetleaf plant response rating (velvetleaf; [9]): 0
Velvetleaf plant response rating (velvetleaf; [2]): 0
Velvetleaf plant response rating (velvetleaf; [3]): 0
Plant response rating, Velvetleaf (velvetleaf; [11]): 0
Plant response rating, Velvetleaf (velvetleaf; [4]): 4
Plant response rating, Rape (rape; [1]): 0
Rape plant response rating (rape; [9]): 0
Plant response rating, Rape (rape; [10]): 0
Rape plant response rating (rape; [2]): 0
Rape plant response rating (rape; [3]): 0
Plant response rating, Rape (rape; [11]): 0
Plant response rating, Rape (rape; [4]): 0
Plant response rating, Blackgrass (blackgrass; [1]): 0
Blackgrass plant response rating (blackgrass; [9]): 0
Plant response rating, Blackgrass (blackgrass; [10]): 0
Blackgrass plant response rating (blackgrass; [2]): 1
Blackgrass plant response rating (blackgrass; [3]): 2
Plant response rating, Blackgrass (blackgrass; [11]): 3
Plant response rating, Blackgrass (blackgrass; [4]): 6
Plant response rating, Wheat (wheat; [1]): 0
Wheat plant response rating (wheat; [9]): 0
Wheat plant response rating (wheat; [2]): 0
Wheat plant response rating (wheat; [3]): 0
Plant response rating, Wheat (wheat; [11]): 0
Plant response rating, Wheat (wheat; [4]): 0
Plant response rating, Cocklebur (cocklebur; [1]): 0
Cocklebur plant response rating (cocklebur; [9]): 0
Plant response rating, Cocklebur (cocklebur; [10]): 2
Cocklebur plant response rating (cocklebur; [2]): 0
Cocklebur plant response rating (cocklebur; [3]): 0
Plant response rating, Cocklebur (cocklebur; [11]): 0
Plant response rating, B. signalgrass (surinam grass; [1]): 0
B. signalgrass plant response rating (surinam grass; [9]): 0
Plant response rating, B. signalgrass (surinam grass; [10]): 0
B. signalgrass plant response rating (surinam grass; [2]): 0
B. signalgrass plant response rating (surinam grass; [3]): 0
Plant response rating, B. signalgrass (surinam grass; [11]): 0
Plant response rating, B. signalgrass (surinam grass; [4]): 4
Plant response rating, Morningglory (morningglory; [1]): 0
Morningglory plant response rating (morningglory; [9]): 2
Plant response rating, Morningglory (morningglory; [10]): 2
Morningglory plant response rating (morningglory; [2]): 0
Morningglory plant response rating (morningglory; [3]): 0
Plant response rating, Morningglory (morningglory; [11]): 0
Plant response rating, Morningglory (morningglory; [4]): 0
Plant response rating, Nutsedge (purple nutsedge; [1]): 0
Nutsedge plant response rating (purple nutsedge; [9]): 0
Plant response rating, Nutsedge (purple nutsedge; [10]): 0
Nutsedge plant response rating (purple nutsedge; [2]): 0
Nutsedge plant response rating (purple nutsedge; [3]): 0
Plant response rating, Nutsedge (purple nutsedge; [11]): 0
Plant response rating, Nutsedge (purple nutsedge; [4]): 3
Plant response rating, Rice (0 to 10 scale, 0 is no effect, 10 is complete control) (rice; [5]): 0
Rice plant response rating (0 to 10 scale, 0 is no effect, 10 is complete control) (rice; [6]): 0
Rice plant response rating (rice; [7]): 0
Rice plant response rating (rice; [8]): 0
